Legend:
[1] = system: Rattus norvegicus; assay: In vivo percent increase in seizure threshold in rat MEST model at the dose of 3 mg/kg p.o. recorded 1 hr post dose; format: functional; conditions: route oral
[2] = system: Rattus norvegicus; assay: In vivo percent increase in seizure threshold in rat MEST model at the dose of 3 mg/kg p.o. recorded 4 hr post dose; format: functional; conditions: route oral
[3] = species: Rattus norvegicus; assay: Ability to displace [3H]- SB-204269 in the rat forebrain
[4] = system: Rattus norvegicus; assay: In vivo percent increase in seizure threshold in rat MEST model at the dose of 3 mg/kg p.o. recorded 2 hr post dose; format: functional; conditions: route oral
[5] = system: Rattus norvegicus; assay: In vivo percent increase in seizure threshold in rat MEST model at the dose of 3 mg/kg p.o. recorded 0.25 hr post dose; format: functional; conditions: route oral
[6] = system: Rattus norvegicus; assay: In vivo percent increase in seizure threshold in rat MEST model at the dose of 3 mg/kg p.o. recorded 0.5 hr post dose; format: functional; conditions: route oral
[7] = system: Rattus norvegicus; assay: In vivo percent increase in seizure threshold in rat MEST model at the dose of 3 mg/kg p.o. recorded 6 hr post dose; format: functional; conditions: route oral
[8] = system: Mus musculus; assay: In vivo percent increase in seizure threshold in mouse MEST model 4 hours following 10 mg/kg p.o.; conditions: at 10 mg/kg
[9] = system: Mus musculus; assay: In vivo percent increase in seizure threshold in mouse MEST model 1 hour following 10 mg/kg p.o.; conditions: at 10 mg/kg
[10] = system: Rattus norvegicus; assay: In vivo percent increase in seizure threshold in rat MEST model at the dose of 10 mg/kg p.o. recorded 1 hr post dose; format: functional; conditions: route oral
[11] = system: Rattus norvegicus; assay: In vivo percent increase in seizure threshold in rat MEST model at the dose of 10 mg/kg p.o. recorded 0.25 hr post dose; format: functional; conditions: route oral
[12] = system: Rattus norvegicus; assay: In vivo percent increase in seizure threshold in rat MEST model at the dose of 10 mg/kg p.o. recorded 2 hr post dose; format: functional; conditions: route oral
[13] = system: Rattus norvegicus; assay: In vivo percent increase in seizure threshold in rat MEST model at the dose of 10 mg/kg p.o. recorded 0.5 hr post dose; format: functional; conditions: route oral
[14] = system: Rattus norvegicus; assay: In vivo percent increase in seizure threshold in rat MEST model at the dose of 10 mg/kg p.o. recorded 6 hr post dose; format: functional; conditions: route oral

In the case of `CC(=O)c1ccc2c(c1)[C@H](NC(=O)c1ccc(F)c(Cl)c1)[C@H](O)C(C)(C)O2` [TONABERSAT], the Increase [1] is reported as 369%, the Increase [2] is reported as 533% and the “Log Ki” value [3] is reported as -7.9. The Increase [4] was 576%, the Increase [5] was 76% and the Increase [6] was 202%. The Increase [7] was 638%.

`CC(=O)c1ccc2c(c1)[C@H](NC(=O)c1ccc(F)cc1Cl)[C@H](O)C(C)(C)O2` was tested, and the “Log Ki” value [3] was -7.2, the Increase [8] was 269% and the Increase [9] was 153%.

Compound `CC(=O)c1ccc2c(c1)[C@H](NC(=O)c1cccnc1)[C@@H](O)C(C)(C)O2` has an Increase [9] of 30%.

Work on `CC(=O)c1ccc2c(c1)[C@H](NC(=O)c1cc(Cl)cc(Cl)c1Cl)[C@@H](O)C(C)(C)O2` yielded an Increase [9] of 33%.

`CC(=O)c1ccc2c(c1)[C@H](NC(=O)c1cccc(Cl)c1)[C@@H](O)C(C)(C)O2` was tested, and the Increase [10] was 507%, the Increase [11] was 157% and the Increase [12] was 796%. It also gave an Increase [13] of 273%, an Increase [14] of 983% and an Increase [8] of 945%. The Increase [9] was 90%.

Compound `CC(=O)c1ccc2c(c1)[C@H](NC(=O)c1ccsc1Cl)[C@@H](O)C(C)(C)O2` has an Increase [8] of 519% and an Increase [9] of 95%.

Work on `CC(=O)c1ccc2c(c1)[C@H](NC(=O)c1ccc(F)cc1Cl)[C@@H](O)C(C)(C)O2` yielded an Increase [1] of 300%, an Increase [2] of 900% and an Increase [4] of 660%. For the same compound, the Increase [5] was 90%, the Increase [6] was 208% and the Increase [7] was 1060%. The Increase [8] was 1080% and the Increase [9] was 162%.

`CC(=O)c1ccc2c(c1)[C@H](NC(=O)c1ccc(F)cc1)[C@@H](O)C(C)(C)O2` [CARABERSAT] was tested, and the Increase [10] was 180%, the Increase [11] was 48% and the “Log Ki” value [3] was -7.3. It also gave an Increase [12] of 420%, an Increase [13] of 90% and an Increase [14] of 390%.

`CC(=O)c1ccc2c(c1)[C@@H](NC(=O)c1cccc(Cl)c1)[C@@H](O)C(C)(C)O2` was tested, and the Log Ki [3] was > -5.4.

`CC(=O)c1ccc2c(c1)[C@H](NC(=O)c1ccsc1)[C@@H](O)C(C)(C)O2` was tested, and the Increase [9] was 50%.

For `CC(=O)c1ccc2c(c1)[C@H](NC(=O)c1ccsc1Cl)[C@H](O)C(C)(C)O2`, the “Log Ki” value [3] was -7.5, the Increase [8] was 383% and the Increase [9] was 47%.

`CC(=O)c1ccc2c(c1)[C@H](NC(=O)c1c(Cl)cccc1Cl)[C@@H](O)C(C)(C)O2` was tested, and the Increase [9] was 10%.

Compound `CC(=O)c1ccc2c(c1)[C@H](NC(=O)c1cccc(Cl)c1)[C@H](O)C(C)(C)O2` has an Increase [8] of 604% and an Increase [9] of 93%.

Compound `CC(=O)c1ccc2c(c1)[C@H](NC(=O)c1cnccn1)[C@@H](O)C(C)(C)O2` has an Increase [9] of 15%.

With `CC(=O)c1ccc2c(c1)[C@H](NC(=O)c1cccc(Cl)c1Cl)[C@@H](O)C(C)(C)O2` the Increase [10] was 880%, the Increase [11] was 104% and the Increase [12] was 1124%. It also gave an Increase [13] of 286% and an Increase [14] of 1076%.

— ChEMBL document CHEMBL1132398, “Identification of (-)-cis-6-acetyl-4S-(3-chloro-4-fluoro-benzoylamino)- 3,4-dihydro-2,2-dimethyl-2H-benzo[b]pyran-3S-ol as a potential antimigraine agent” (Bioorg Med Chem Lett, 1999)
